These results are taken from publication PMC4741889, “Ligand-based chemoinformatic discovery of a novel small molecule inhibitor targeting CDC25 dual specificity phosphatases and displaying in vitro efficacy against melanoma cells” (Oncotarget, 2015).

Assay [1] deals with T1, CDC25B (Homo sapiens, UniProt P30305).
T1 construct: Recombinant forms of the catalytic domains of CDC25A, -B and -C were obtained through the vectors pET28a-CDC25A-cd, pET28a-CDC25B-cd and pET28a-CDC25C-cd; made in house
T1 sequence (P30305 431-538 limits assumed): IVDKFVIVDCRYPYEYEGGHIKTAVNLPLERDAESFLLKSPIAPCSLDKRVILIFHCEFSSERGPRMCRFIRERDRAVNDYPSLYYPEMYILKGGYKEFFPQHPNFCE
Description: Residual phosphatase activity of recombinant CDC25B, fluorimetric OMFP assay. It is filed as biochemical. Conditions: 10 nM CDC25B, 25 μM OMFP, read-out: CDC25B residual activity (%) in the presence of [inhibitor]. As to the method: Among the twenty-five structures identified from the multiple ligand-based chemoinformatic approach, eight compounds (2, 10, 12–14, and 16–18) were excluded from the analysis, because endowed with a strong fluorescent signal, which interfered with the emission wavelength of the synthetic substrate 3-O-methylfluorescein phosphate (OMFP) used in the fluorimetric assay. The inhibition of the phosphatase activity of CDC25B by the remaining seventeen analogs was evaluated in the presence of two different concentrations of these compounds (Table 2). […] For this reason, only one of these latter compounds, i.e. 3, was included in the following analysis.
The enzymatic activity of the catalytic domains of CDC25A, -B and -C were determined through a fluorimetric method, which monitored the dephosphorylation of the synthetic substrate OMFP, essentially as previously described. In steady-state enzyme kinetic studies, the residual phosphatase activity of purified recombinant CDC25B was measured at 30°C in the presence of different concentrations of the various inhibitors, using a computer-assisted Cary Eclipse spectrofluorimeter (Varian) equipped with an electronic temperature controller. Excitation and emission wavelengths were set at 485 and 530 nm, respectively; both excitation and emission slits were set at 10 nm. The reaction mixture contained 10 nM CDC25B and different concentrations of the various inhibitors in 500 μL final volume of 20 mM Tris-HCl, pH 7.8, 1 mM DTT. DMSO was used as vehicle control. The reaction started by the addition of 25 μM OMFP, and the formation of the fluorescent product o-methylfluorescein was monitored continuously. The rate of OMFP hydrolysis was expressed as arbitrary units per min (a.u./min). The comparison of the rates determined in the absence and in the presence of the various inhibitors allowed the calculation of the residual phosphatase activity, expressed as a percentage.

Assay [2] has as its system MCF-7 breast cancer cell line. Details: method as in PMID 22524450. The note with it: cited from earlier work.
Assay [3] concerns PC-3 prostate cancer cell line. Details: method as in PMID 22524450. Conditions: cited from earlier work.
In assay [4] the target is T2, CDC25C (Homo sapiens, UniProt P30307).
T2 construct: Recombinant forms of the catalytic domains of CDC25A, -B and -C were obtained through the vectors pET28a-CDC25A-cd, pET28a-CDC25B-cd and pET28a-CDC25C-cd; made in house
T2 sequence (P30307 321-428 limits assumed): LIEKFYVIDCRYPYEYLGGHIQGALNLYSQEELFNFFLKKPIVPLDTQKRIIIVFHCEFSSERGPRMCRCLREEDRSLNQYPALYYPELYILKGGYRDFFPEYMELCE
Put plainly: Ki from OMFP hydrolysis kinetics (Lineweaver-Burk), CDC25C. The format is biochemical. The note with it: 40 nM CDC25C, 1–25 μM OMFP; mean ± S.E.; read-out: Ki CDC25C. As to the method:
To measure the inhibition constant (Ki) of the recombinant forms of CDC25A, -B and -C towards the various inhibitors, the affinity of the different forms of CDC25 towards OMFP was measured either in the absence or in the presence of fixed concentrations of the various inhibitors. The reaction mixture contained 20 nM CDC25A, or 10 nM CDC25B, or 40 nM CDC25C, and different concentrations of the various inhibitors in 500 μL final volume of 20 mM Tris-HCl, pH 7.8, 1 mM DTT. DMSO was used as vehicle control. […] The corresponding Lineweaver-Burk plots allowed the calculation of the KM for OMFP and of the Vmax of OMFP hydrolysis, expressed as a.u./minmax. […] The Ki values were obtained from the decrease of a.u./minmax in the presence of the inhibitor, according to the equation a.u./mimmax’ = a.u./mimmax/{1 + ([I]/Ki)}, where a.u./mimmax’ represents the Vmax measured in the presence of the concentration [I] of the inhibitor. The Ki values were obtained from at least three independent experiments and reported as mean ± S.E.

Assay [5] has as its system SAN cells. Put plainly: MTT cell growth rate, SAN melanoma cells. The format is cell-based, human. The note with it: 100 μM, 72 h, MTT (not shown). As to the method: (§1) The human melanoma cell line A2058, kindly provided by CEINGE (Naples, Italy), and SAN cells were derived from lymph nodal metastases and grown in DMEM and RPMI 1640, respectively, supplemented with 10% FBS, 2 mM L-glutamine, 100 IU/mL penicillin G, and 100 μg/mL streptomycin in humidified incubator at 37°C under 5% CO2 atmosphere. All cells were split and seeded every three days and used during the exponential phase of growth. Cell treatments were always carried after 24 h from plating.
(§2) The MTT assay was used to detect cell proliferation essentially as previously described. Briefly, A2058 and SAN cells were plated in 96-well microtiter plates (100 μL/well) at 4000 and 6000 cells/well, respectively. After 24-h seeding, cells were treated with the selected compounds added at 25, 50 or 100 μM concentration, or with 0.5% (v/v) DMSO as a vehicle control. After 24-h, 48-h or 72-h treatment, and upon the addition of 10 μL of MTT solution in the dark, the plate was incubated for 3 h at 37°C under CO2 atmosphere. After medium aspiration and solubilization of formazan crystals, absorbance was measured at 570 nm, using an ELISA plate reader (Bio-Rad, Milano, Italy).

Assay [6] deals with A2058 cells. Description: MTT cell growth rate, A2058 melanoma cells. It is filed as cell-based, human. Conditions: A2058, 100 μM, 48 h, MTT. The method, then:
as §1, §2

In assay [7] the test system is K562 leukaemia cancer cell line. More on the design: method as in PMID 22524450. The note with it: cited from earlier work.

In the case of `O=C(O)CCc1c2ccc(=O)c(O)c-2oc2c(O)c(O)ccc12` [NSC 119915, reference compound], in assay [1] (0.2 μM inhibitor), the remaining activity at 0.2 µM came to 38%. For the same compound, the remaining activity at 1 µM in assay [1] (1 μM inhibitor) was 2%. Also, the “growth of cancer cell line” value in assay [2], in assay [3] and in assay [7] was “significantly inhibited the growth” in each case. In addition, the Ki (usually the dissociation constant of the complex between target and ligand, obtained from inhibition or displacement) in assay [4] was found to be 0.24 ± 0.13 µM. Moreover, the results for the cell growth rate entry in assay [5] and in assay [6] were “significant reduction of cell growth rate” and “quite ineffective or caused a not significant reduction of cell growth rate”, respectively.
